In patent US20150374673A1, “Combination Therapy for the Treatment of Nosocomial Pneumonia” (priority 2013, published 2015):
Entries after “also recorded” stand apart in the source; their conditions may differ. Like-named read-outs stand apart in the source and are kept apart here.

Experiments:
Penetration to human ELF = assay type: in vivo; conditions: epithelial lining fluid (ELF)
E. cloacae = experiment: Initial MIC, microbroth dilution (CLSI), avibactam 4 mg/L; assay type: cell-based; conditions: Enterobacter cloacae
Text: (§1) All MIC determinations including those performed in the checkerboard assay were done in cation-adjusted Mueller-Hinton broth (purchased from Becton Dickinson, Oxford UK). […]

S. aureus = experiment: as above; assay type: cell-based; conditions: Staphylococcus aureus, read-out: MIC
Text: as §1

P. aeruginosa [1] = experiment: as above; assay type: cell-based; conditions: Pseudomonas aeruginosa
Protocol: (§2) All MIC determinations including those performed in the checkerboard assay were done in cation-adjusted Mueller-Hinton broth (purchased from Becton Dickinson, Oxford UK).
(§3) Initial MIC data were determined by microbroth dilution methods as recommended by CLSI (2012b). Checkerboards were made in accordance with the method given by Pillai et. al., ? Antimicrobial Combinations in Antibiotics, LABORATORY MEDICINE (Lorian Ed., 3rd Ed. (2003)) p. 365-440 as per standard microbroth dilution tests but with agents in combination. […] A final avibactam concentration of 4 mg/L was used throughout the study. Antibacterial agents were combined into microtitre plates using the Evolution III liquid handling system.

K. pneumoniae = experiment: as above; assay type: cell-based; conditions: Klebsiella pneumoniae
Protocol: as §2, §3

P. aeruginosa [2] = experiment: In vivo efficacy, ceftazidime directed ELF fT>MIC regimen, neutropenic lung infection model (ICR mice); set-up: species or system Pseudomonas aeruginosa; conditions: for Change log CFU Mean: 24 h
Protocol: (§4) It has been observed in surveillance studies that the MIC90 for ceftazidime-avibactam against P. aeruginosa is 8 μg/mL (10-12). Given this, there are few isolates with higher MICs and the number that would grow within the murine lung infection model is even less. […] Doses of the previous humanized regimen described above were […] throughout the dosing period and further pharmacokinetic studies were performed. […] Mice were euthanized and serum and BAL samples were collected, as described above, at predetermined times.
For these studies, 9 P. aeruginosa isolates were evaluated against the CAZ regimen in mice that yielded specific ELF fT>MIC. Doses were initiated 2 hours after inoculation of the test organisms ? and all doses were administered as 0.2 mL subcutaneous injections and consisted of three 8 hour dosing intervals (i.e. 24 hours). To serve as control animals, an additional group of mice were administered normal saline at the same volume, route, and frequency as the treatment regimen. The harvesting procedure for all study mice began with euthanization by CO2 exposure followed by cervical dislocation. After sacrifice, lungs were removed and individually homogenized in normal saline. Serial dilutions of the lung homogenate were plated on trypticase soy agar with 5% sheep blood for CFU determination. In addition to the above mentioned treatment and control groups, another group of 6 infected, untreated mice were harvested at the initiation of dosing and served as 0 h controls. Efficacy, designated as the change in bacterial density, was calculated as the change in log10 bacterial CFU obtained for treated mice after 24 h from that of that starting densities observed in 0 h control animals.

Pseudomonas aeruginosa = experiment: MIC of ceftazidime-resistant P. aeruginosa strains, microdilution according to ISO guidelines; assay type: cell-based
Protocol: (§5) Seven well-characterized ceftazidime-resistant Pseudomonas aeruginosa strains, obtained from a variety of clinically relevant sources, were used in the experiments as shown in Table 1. MICs were taken from an earlier in vitro checkerboard study (Berkhout & Mouton 2013 CAZ-AVI-M1-061) and were determined by microdilution according to the ISO-guidelines (ISO 2006). This method is CLSI compatible.
as §5, with “[…].” for “Table 1.”, “determined in” for “taken from”, “(AstraZeneca study report #” for “(Berkhout & Mouton 2013”

[3] = Serum and ELF pharmacokinetics of ceftazidime regimens (human simulated and directed ELF fT>MIC) in infected mice; assay type: in vivo, female ICR mice; conditions: MICs of 32 μg/mL; ceftazidime directed ELF fT>MIC regimen
Protocol: Confirmatory pharmacokinetic studies were undertaken in infected mice and pharmacodynamic analyses and an assessment of ELF fT>MIC was made from the resulting concentration-time profile.
as §4

P. aeruginosa [4] = experiment: MIC of the P. aeruginosa isolates used in the in vivo efficacy studies; assay type: cell-based; conditions: Pseudomonas aeruginosa

With `NC(=O)[C@@H]1CC[C@@H]2CN1C(=O)N2OS(=O)(=O)[O-].[Na+]` [avibactam, [(2S,5R)-2-carbamoyl-7-oxo-1,6-diazabicyclo[3.2.1]octan-6-yl]hydrogen sulfate] the Kp (Penetration to human ELF) was ~0.3.

For `CC(C)(O/N=C(\C(=O)N[C@@H]1C(=O)N2C(C(=O)[O-])=C(C[n+]3ccccc3)CS[C@H]12)c1csc(N)n1)C(=O)O` [ceftazidime, (6R,7R)-7-[[(2Z)-2-(2-amino-1,3-thiazol-4-yl)-2-(1-hydroxy-2-methyl-1-oxopropan-2-yl)oxyiminoacetyl]amino]-8-oxo-3-(pyridin-1-ium-1-ylmethyl)-5-thia-1-azabicyclo[4.2.0]oct-2-ene-2-carboxylate pentahydrate], the MIC (E. cloacae; isolate 1 E. cloacae Basal MICs, read-out: MIC) was 0.12 µg/mL, the MIC (E. cloacae; isolate 2 E. cloacae Derepressed AmpC) was 256 µg/mL and the MIC (E. cloacae; isolate 3 E. cloacae Derepressed AmpC) was 128 µg/mL. The MIC (S. aureus; isolate 22 S. aureus Basal MICs) was 8 µg/mL, the MIC (S. aureus; isolate 23 S. aureus Basal MICs, Penicillinase+) was 16 µg/mL and the MIC (S. aureus; isolate 24 S. aureus Basal MICs, Penicillinase+) was 8 µg/mL. The MIC (P. aeruginosa [1]; isolate 16 P. aeruginosa Basal MICs, read-out: MIC) was 1 µg/mL, the MIC (P. aeruginosa [1]; isolate 17 P. aeruginosa Derepressed AmpC, read-out: MIC) was 8 µg/mL and the MIC (P. aeruginosa [1]; isolate 18 P. aeruginosa Derepressed AmpC, read-out: MIC) was 64 µg/mL. The MIC (P. aeruginosa [1]; isolate 19 P. aeruginosa PER, read-out: MIC) was 128 µg/mL, the MIC (P. aeruginosa [1]; isolate 20 P. aeruginosa KPC-2) was 128 µg/mL and the MIC (P. aeruginosa [1]; isolate 21 P. aeruginosa KPC-2, read-out: MIC) was 64 µg/mL. For the same molecule, the MIC (K. pneumoniae; isolate 9 K. pneumoniae Basal MICs, read-out: MIC) was 0.12 µg/mL, the MIC (K. pneumoniae; isolate 10 K. pneumoniae TEM-4, read-out: MIC) was 32 µg/mL and the MIC (K. pneumoniae; isolate 11 K. pneumoniae CTX-M-15, read-out: MIC) was 32 µg/mL. The MIC (K. pneumoniae; isolate 12 K. pneumoniae SHV-12, read-out: MIC) was 64 µg/mL, the MIC (K. pneumoniae; isolate 13 K. pneumoniae KPC-3) was 128 µg/mL and the MIC (K. pneumoniae; isolate 14 K. pneumoniae KPC-3, read-out: MIC) was 16 µg/mL. For the same molecule, the MIC (K. pneumoniae; isolate 15 K. pneumoniae KPC-2, read-out: MIC) was 64 µg/mL, the “activity in neutropenic lung infection model” value (P. aeruginosa [2]; directed ELF fT>MIC regimen, isolates with MICs of 32 μg/mL) was “Activity was observed” and the “activity in neutropenic lung infection model” value (P. aeruginosa [2]; in vivo) was “Efficacy was variable; also recorded: little to no activity”. The “Change log CFU Mean” value (P. aeruginosa [2]; isolate PSA 968, control 0 h 5.98, 24 h 9.76) was 4.45 log CFU, the “Change log CFU Mean” value (P. aeruginosa [2]; isolate PSA 1382, control 0 h 5.91, 24 h 8.64) was 6.42 log CFU and the “Change log CFU Mean” value (P. aeruginosa [2]; isolate PSA 1383, control 0 h 5.77, 24 h 7.29) was 3.73 log CFU. The “Change log CFU Mean” value (P. aeruginosa [2]; isolate PSA 1384, control 0 h 5.86, 24 h 7.61) was 4.4 log CFU, the “Change log CFU Mean” value (P. aeruginosa [2]; isolate PSA 1386, control 0 h 5.79, 24 h 9.67) was 5.98 log CFU and the “Change log CFU Mean” value (P. aeruginosa [2]; isolate PSA 1387, control 0 h 6.39, 24 h 9.45) was 4.23 log CFU. The “Change log CFU Mean” value (P. aeruginosa [2]; isolate PSA 1388, control 0 h 5.86, 24 h 8.39) was 5.54 log CFU, the “Change log CFU Mean” value (P. aeruginosa [2]; isolate PSA 1389, control 0 h 5.68, 24 h 9.67) was 6.3 log CFU and the “Change log CFU Mean” value (P. aeruginosa [2]; isolate PSA 1394, control 0 h 5.58, 24 h 7.73) was 5.96 log CFU. For the same molecule, the MIC (Pseudomonas aeruginosa; P. aeruginosa isolate no. 1, CAZ-AVI determined at 4 mg/L avibactam) was 128 µg/mL, the MIC (Pseudomonas aeruginosa; P. aeruginosa isolate no. 11, CAZ-AVI determined at 4 mg/L avibactam) was 128 µg/mL and the MIC (Pseudomonas aeruginosa; Pseudomonas aeruginosa) was 128 µg/mL. It also gave an MIC (Pseudomonas aeruginosa; Pseudomonas aeruginosa, P. aeruginosa isolate no. 3, CAZ-AVI determined at 4 mg/L avibactam, read-out: MIC) of 64 µg/mL, an MIC (Pseudomonas aeruginosa; Pseudomonas aeruginosa, P. aeruginosa isolate no. 7, CAZ-AVI determined at 4 mg/L avibactam, read-out: MIC) of 64 µg/mL and an MIC (Pseudomonas aeruginosa; Pseudomonas aeruginosa, P. aeruginosa isolate no. 18, CAZ-AVI determined at 4 mg/L avibactam, read-out: MIC) of 32 µg/mL. The MIC (Pseudomonas aeruginosa; Pseudomonas aeruginosa, P. aeruginosa isolate no. 19, CAZ-AVI determined at 4 mg/L avibactam, read-out: MIC) was 64 µg/mL, the “ELF fT>MIC” value [3] was 12% and the MIC (P. aeruginosa [4]; P. aeruginosa PSA 1-25) was 128 µg/mL. For the same molecule, the MIC (P. aeruginosa [4]; P. aeruginosa PSA 1-29) was 32 µg/mL, the MIC (P. aeruginosa [4]; P. aeruginosa PSA 2-69) was 64 µg/mL and the MIC (P. aeruginosa [4]; P. aeruginosa PSA 3-9) was > 128 µg/mL. For the same molecule, the MIC (P. aeruginosa [4]; P. aeruginosa PSA 4-32) was 32 µg/mL, the MIC (P. aeruginosa [4]; P. aeruginosa PSA 4-36) was 64 µg/mL and the MIC (P. aeruginosa [4]; P. aeruginosa PSA 4-39) was 32 µg/mL. The MIC (P. aeruginosa [4]; P. aeruginosa PSA 4-84) was 64 µg/mL, the MIC (P. aeruginosa [4]; P. aeruginosa PSA 7-6) was 128 µg/mL and the MIC (P. aeruginosa [4]; P. aeruginosa PSA 8-16) was 64 µg/mL. For the same molecule, the MIC (P. aeruginosa [4]; P. aeruginosa PSA 11-54) was 32 µg/mL, the MIC (P. aeruginosa [4]; P. aeruginosa PSA 14-28) was 128 µg/mL and the MIC (P. aeruginosa [4]; P. aeruginosa PSA 22) was 64 µg/mL. The MIC (P. aeruginosa [4]; P. aeruginosa PSA 24-2) was 32 µg/mL, the MIC (P. aeruginosa [4]; P. aeruginosa PSA 28-19) was 128 µg/mL and the MIC (P. aeruginosa [4]; P. aeruginosa PSA 37-8) was 64 µg/mL. For the same molecule, the MIC (P. aeruginosa [4]; P. aeruginosa PSA 856) was 8 µg/mL, the MIC (P. aeruginosa [4]; P. aeruginosa PSA 968) was 32 µg/mL and the MIC (P. aeruginosa [4]; P. aeruginosa PSA 971) was 16 µg/mL. For the same molecule, the MIC (P. aeruginosa [4]; P. aeruginosa PSA 1382) was 128 µg/mL, the MIC (P. aeruginosa [4]; P. aeruginosa PSA 1383) was 64 µg/mL and the MIC (P. aeruginosa [4]; P. aeruginosa PSA 1384) was 64 µg/mL. It also gave an MIC (P. aeruginosa [4]; P. aeruginosa PSA 1386) of 128 µg/mL, an MIC (P. aeruginosa [4]; P. aeruginosa PSA 1387) of 32 µg/mL and an MIC (P. aeruginosa [4]; P. aeruginosa PSA 1388) of 128 µg/mL. For the same molecule, the MIC (P. aeruginosa [4]; P. aeruginosa PSA 1389) was 64 µg/mL, the MIC (P. aeruginosa [4]; P. aeruginosa PSA 1391) was 128 µg/mL and the MIC (P. aeruginosa [4]; P. aeruginosa PSA 1394) was 64 µg/mL.
